Laboratory results from patent US20230286968A1, “ARYLOXAZOLO SPIRAL RING DERIVATIVES FOR THE TREATMENT AND PROPHYLAXIS OF HEPATITIS B VIRUS INFECTION” (Hoffmann-La Roche Inc., priority 2020, published 2023).

What was measured:
[1] = Cytotoxicity in PHH natural infection assay (Cell Counting Kit-8); type: cell-based; conditions: HBV-infected primary human hepatocytes, CCK8
Outline: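 HBV-infected primary human hepatocytes (200 GE/cell, 4% PEG8000, 24 h), sandwich-cultured 72 h, then given compound-containing medium twice at 72 h intervals. Cytotoxicity read by CCK-8 at end of treatment.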

HBeAg = test: PHH natural infection assay, HBeAg (alphalisa); type: cell-based, HBV; conditions: Hepatitis B virus, Hepatocyte, read-out: HBeAg IC50, HBV-infected primary human hepatocytes, supernatant, alphalisa
Outline: (§1)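 Cryopreserved PHH plated 24 h, infected with HBV at 200 GE/cell plus 4% PEG8000 for 24 h, then sandwich-cultured 72 h with 0.25 mg/mL matrix gel. Compounds at varied concentrations applied twice at 72-h intervals. Supernatant HBsAg and HBeAg measured by AlphaLISA with specific antibodies.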

HBsAg = test: PHH natural infection assay, HBsAg (alphalisa); type: cell-based, HBV; conditions: Hepatitis B virus, Hepatocyte, read-out: HBsAg IC50, HBV-infected primary human hepatocytes, supernatant, alphalisa
Outline: as §1

Row | SMILES | CC50 at 144 h [1] [µM] | IC50 (HBeAg) [µM] | IC50 (HBsAg) [µM]
1 | O=C(NC1CC2(C1)CC(c1nc3cc(Cl)ccc3o1)C2)c1ccnc(N2CCOCC2)c1 (stereo not drawn) [Example 9, N-[6-(5-chloro-1,3-benzoxazol-2-yl)spiro[3.3]heptan-2-yl]-2-morpholino-pyridine-4-carboxamide] | > 10 | 4.37 | 3.83
2 | CS(=O)(=O)N1CCC(CC(=O)NC2CC3(C2)CC(c2nc4cc(Cl)ccc4o2)C3)CC1 (stereo not drawn) [Example 79, N-[6-(5-chloro-1,3-benzoxazol-2-yl)spiro[3.3]heptan-2-yl]-2-(1-methylsulfonyl-4-piperidyl)acetamide] | > 10 | 3.6 | 6.72
3 | O=C(NC1CC2(C1)CC(c1nc3cc(Cl)ccc3o1)C2)c1ccnc(-c2nccs2)c1 (stereo not drawn) [Example 16, N-[6-(5-chloro-1,3-benzoxazol-2-yl)spiro[3.3]heptan-2-yl]-2-thiazol-2-yl-pyridine-4-carboxamide] | > 10 | 4.73 | 5.78
4 | O=C(NC1CC2(C1)CC(c1nc3cc(Cl)ccc3o1)C2)C1CCS(=O)(=O)N1 (stereo not drawn) [Example 45, N-[6-(5-chloro-1,3-benzoxazol-2-yl)spiro[3.3]heptan-2-yl]-1,1-dioxo-1,2-thiazolidine-3-carboxamide] | > 100 | 1.36 | 2.41
5 | O=C(NC1CC2(C1)CC(c1nc3cc(Cl)ccc3o1)C2)C1CCN(C(=O)C2CC2)C1 (stereo not drawn) [Example 74, N-[6-(5-chloro-1,3-benzoxazol-2-yl)spiro[3.3]heptan-2-yl]-1-(cyclopropanecarbonyl)pyrrolidine-3-carboxamide] | > 10 | 2.17 | 3.2
6 | CC1(C(=O)NC2CC3(C2)CC(c2nc4cc(Cl)ccc4o2)C3)CCS(=O)(=O)C1 (stereo not drawn) [Example 48, N-(6-(5-chlorobenzo[d]oxazol-2-yl)spiro[3.3]heptan-2-yl)-3-methyltetrahydrothiophene-3-carboxamide 1,1-dioxide] | > 100 | 1.1 | 2.62
7 | CN(C)C(=O)c1cc(C(=O)NC2CC3(C2)CC(c2nc4cc(Cl)ccc4o2)C3)ccn1 (stereo not drawn) [Example 103, N4-[6-(5-chloro-1,3-benzoxazol-2-yl)spiro[3.3]heptan-2-yl]-N2,N2-dimethyl-pyridine-2,4-dicarboxamide] | > 10 | 4.02 | 5.63
8 | N=S(=O)(c1cc(C(=O)NC2CC3(C2)CC(c2nc4cc(Cl)ccc4o2)C3)ccn1)C1CC1 (stereo not drawn) [Example 86, N-[6-(5-chloro-1,3-benzoxazol-2-yl)spiro[3.3]heptan-2-yl]-2-(cyclopropylsulfonimidoyl)pyridine-4-carboxamide] | > 100 | 0.42 | 0.64
9 | NC(=O)c1cc(C(=O)NC2CC3(C2)CC(c2nc4cc(Cl)ccc4o2)C3)ccn1 (stereo not drawn) [Example 101, N4-[6-(5-chloro-1,3-benzoxazol-2-yl)spiro[3.3]heptan-2-yl]pyridine-2,4-dicarboxamide] | > 100 | 0.22 | 0.32
10 | CN1CCC(C(=O)NC2CC3(C2)CC(c2nc4cc(Cl)ccc4o2)C3)CC1=O (stereo not drawn) [Example 34, N-[6-(5-chloro-1,3-benzoxazol-2-yl)spiro[3.3]heptan-2-yl]-1-methyl-2-oxo-piperidine-4-carboxamide] | > 100 | 4.42 | 8.69
11 | O=C(NC1CC2(C1)CC(c1nc3cc(Cl)ccc3o1)C2)C1CCCS1(=O)=O (stereo not drawn) [Example 42, N-[6-(5-chloro-1,3-benzoxazol-2-yl)spiro[3.3]heptan-2-yl]-1,1-dioxo-thiolane-2-carboxamide] | > 100 | 5.67 | 9.7
